{"source": "paper PMC1874649", "about": "(Nucleic Acids Research, 2007)", "test_system": "cyclin B1", "format": "cell-based", "conditions": "complexed with Pep-3, 2 µM, HeLa cells", "data": [{"substance": "control HypNA-pPNA sequence harbouring two mutations: sequence derived from Cyc-B1a harbouring two mismatches, TGC CAT CAG GCT TAG AGG (antisense TGCCATCAGGCTTAGAGG; HypNA-pPNA backbone (hydroxyproline/phosphono PNA), pattern not given here)", "values": [{"measurement": "effect on cyclin B1 protein levels (control)", "result": "no effect"}]}]}
